According to patent US20120294859A1, “CANCER STEM CELL MARKERS AND USES THEREOF” (GLYCOTOPE GMBH, priority 2010, published 2012):

Assays:
[1] = tested on: MDA-MB-231 breast adenocarcinoma cells; experiment: Flow cytometry of CD44/CD173/CD174 expression after 4-OHT treatment; type: cell-based; conditions: MDA231, 20 nM for 24 h, P<0.05
Description: (§1) Cell suspensions from established cell lines were prepared at a density of 1×10^6 cells/100 μl. They were washed twice with phosphate buffered saline (PBS) containing 2% BSA and incubated with primary antibodies at 4° for 20 min, followed by anti IgG-Cy3 (γ chain-specific) and anti IgM-FITC (μ chain-specific) in appropriate concentrations at 4° for 20 min. Flow cytometry was performed on a FACScan (BD Biosciences, Franklin Lakes, N.J., USA). Collected data from 10,000 cells and WinMDI software were used for the analysis of FACS […]. For 4-hydroxytamoxifen treatment, MDA-MB-231, MDA-MB-435 and MCF-7 breast adenocarcinoma cell lines were exposed to 4-OHT (#H6278, Sigma) at a final concentration of 20 nM for 24 h. Then flow cytometry analysis was performed as described above.

[2] = tested on: MCF-7 breast adenocarcinoma cells; experiment: as above; type: cell-based; conditions: MCF-7, 20 nM for 24 h, P>0.05
Description: as §1

[3] = tested on: MDA-MB-435 breast adenocarcinoma cells; experiment: as above; type: cell-based; conditions: MDA-MB-435, 20 nM for 24 h, P>0.05
Description: as §1

[4] = tested on: MDA435 breast adenocarcinoma cells; experiment: Flow cytometry of CD44/CD176 expression after 4-OHT treatment; type: cell-based, human; conditions: for change in percentage of CD44^+/CD176^+ cells after treatment: MDA435, 24 h, 20 nM
Description: (§2) Cell suspensions of cell lines were prepared at 1×10^6 cells/100 μl. Cells were washed twice with PBS containing 2% BSA and incubated with primary antibodies at appropriate dilutions at 4° C. for 20 min, followed by anti-IgG-Cy3 (γ chain-specific) and anti-IgM-FITC (μ chain-specific) at appropriate concentrations at 4° C. for 20 min. Flow cytometry was performed with a FACScan (BD Biosciences, Franklin Lakes, N.J., USA). Collected data from 10,000 cells and WinMDI software were used in the analysis of FCS […]. For 4-hydroxytamoxifen treatment, MDA231, MDA435 and MCF-7 breast adenocarcinoma cell lines were exposed to 4-OHT (#H6278, Sigma) at a final concentration of 20 nM for 24 h. Then flow cytometry analysis was performed as described above.

[5] = tested on: MDA231 breast adenocarcinoma cells; experiment: as above; type: cell-based, human
Description: as §2

[6] = tested on: MCF-7 breast adenocarcinoma cells; experiment: as above; type: cell-based, human
Description: as §2

[7] = MDA435, 4-OHT 20 nM for 24 h, percent of the positive cells
[8] = MDA231, 4-OHT 20 nM for 24 h, percent of the positive cells
[9] = MCF-7, 4-OHT 20 nM for 24 h, percent of the positive cells

`CC/C(=C(\c1ccc(O)cc1)c1ccc(OCCN(C)C)cc1)c1ccccc1` [4-OHT, 4-hydroxytamoxifen] was tested, and the “change in percentage of CD44^+CD173^+ cells after treatment” value [1] was “increased”, the “change in percentage of CD44^+CD174^+ cells after treatment” value [1] was “increased” and the “change in percentage of CD44^+CD173^+ cells after treatment” value [2] was “not”. For the same molecule, the “change in percentage of CD44^+CD174^+ cells after treatment” value [2] was “not”, the “change in percentage of CD44^+CD173^+ cells after treatment” value [3] was “not” and the “change in percentage of CD44^+CD174^+ cells after treatment” value [3] was “not”. For the same molecule, the “CD44^+/C176^+ cells” value [4, 7] was about 12%, the “CD44^+/CD176^− cells” value [4, 7] was about 50% and the “CD44^−/CD176^+ cells” value [4, 7] was about 7%. The “CD44^−/CD176^− cells” value [4, 7] was about 31%, the “change in percentage of CD44^+/CD176^+ cells after treatment” value [4] was “increased” and the “change in percentage of CD44^+/CD176^+ cells after treatment” value ([4]; listed as tamoxifen) was “enhanced”. The “CD44^+/C176^+ cells” value [5, 8] was about 2%, the “CD44^+/CD176^− cells” value [5, 8] was about 1% and the “CD44^−/CD176^+ cells” value [5, 8] was about 13%. For the same molecule, the “CD44^−/CD176^− cells” value [5, 8] was over 60%, the “change in number of CD44^+/CD176^+ co-expressing cells after treatment” value ([5]; MDA231, 24 h, 20 nM) was “no significantly increased number” and the “CD44^+/C176^+ cells” value [6, 9] was about 8%. For the same molecule, the “CD44^+/CD176^− cells” value [6, 9] was about 20%, the “CD44^−/CD176^+ cells” value [6, 9] was about 8% and the “CD44^−/CD176^− cells” value [6, 9] was over 60%. For the same molecule, the “change in number of CD44^+/CD176^+ co-expressing cells after treatment” value ([6]; MCF-7, 24 h, 20 nM) was “no significantly increased number”.
